Measurements reported in patent US11273217B2, “Cancer treatment composition combining anti-CD26 antibody and other anticancer agent” (Y's AC Co., Ltd., priority 2015, dated 2022).
Like-named read-outs stand apart in the source and are kept apart here.

Assays:
Assay type in all cases: cell-based
H2452 cells [1] = experiment: Boyden chamber invasion assay, H2452; details: 24 hours; for action on cell invasion (in words): cisplatin at 10 and 30 μM, pemetrexed even at 30 μM
Experimental: (§1) MESO1 cells or H2452 cells (2.5×10^4 cells/well) were inoculated to a Boyden chamber. One hour later, cisplatin (5, 10, or 30 μM) or pemetrexed (1, 10, or 30 μM) was added thereto (n=5), followed by Boyden chamber invasion assay. 24 hours after the cell inoculation, invasive cells were stained with Diff-Quik-staining kit. Significant difference was tested by two-tailed t-test (vs Cont).
(§2) MESO1 cells or H2452 cells (2.5×10^4 cells/well) were inoculated to a Boyden chamber. One hour later, the combination of cisplatin (0, 3, or 10 μM) and pemetrexed (0, 10, or 30 μM) was added thereto (n=5), followed by Boyden chamber invasion assay. 24 hours after the cell inoculation, invasive cells were stained with Diff-Quik-staining kit. Significant difference was tested by two-tailed t-test (vs Cont).
as §2, with “H2452” for “MESO1 cells or H2452”, “YS110” for “pemetrexed”, “20 μg/ml)” for “30 μM)”, “Cont). Next, the interaction of YS110 with cisplatin-pemetrexed concomitant use was studied. The interaction was analyzed by two-way ANOVA.” for “Cont).”

JMN cells = experiment: MTT cell growth assay, JMN; details: MESO1 (CD9+) vs JMN (CD9−); 10^−9 to 10^−4 M
Experimental: (§3) Gemcitabine was studied for its effect on the growth of a mesothelioma cell line. A mesothelioma cell line MESO1, JMN, H2452, or H226 (2×10^3 cells/well) was inoculated to a 96-well plate. One hour later, gemcitabine (10^−9, 10^−8, 10^−7, 10^−6, 10^−5, or 10^−4 M) was added thereto (N=6). 2 days later, MTT assay was conducted. Significant difference was tested by two-tailed t-test (vs Cont).
(§4) JMN cells (2×10^3 cells/well) were inoculated to a 96-well plate. One hour later, gemcitabine (0, 3×10^−10, 10^−9, or 3×10^−8 M) and YS110 (0, 1, 3, or 10 μg/ml) were added thereto in combination. At day 2, MTT assay was conducted. Significant difference was tested by two-tailed t-test (vs Cont). Next, interaction in concomitant use of medications was studied (n=6). The interaction between YS110 and gemcitabine used concomitantly was analyzed by two-way ANOVA.
(§5) MESO1, JMN, H2452 or H226 cells (2×10^3 cells/well were inoculated to a 96-well plate. One hour later, 3×10^−8 M or 10^−7 M gemcitabine was added thereto by concomitant use with the combination of cisplatin (0, 0.1, 0.3, or 1 μM) and pemetrexed (0, 0.03, 0.1, or 0.3 μM) (n=6). At day 2, MTT assay was conducted.
(§6) The growth inhibitory effects of cisplatin (10^−9 to 10^−4 M) and pemetrexed (10^−9 to 10^−4 M) were compared using the MESO1 and JMN cell lines.
(§7) The growth inhibitory effect of gemcitabine (10^−9 to 10^−4 M) was compared using MESO1, H2452, JMN, and H226 cell lines.

MESO1 cells [2] = experiment: MTT cell growth assay, MESO1; details: 10^−9 to 10^−4 M; day 2
Experimental: (§8) MESO1 or H2452 cells (2×10^3 cells/well) were inoculated to a 96-well plate. One hour later, cisplatin or pemetrexed was added thereto at 10^−9, 10^−8, 10^−7, 10^−6, 10^−5, or 10^−4 M (n=6). At day 2, MTT assay was conducted.
MESO1 cells (2×10^3 cells/well) were inoculated to a 96-well plate. One hour later, the combination of 0.3, 3, or 10 μM cisplatin and 0.1, 3, or 10 μg/ml YS110, or the combination of 0.03, 0.3, or 1 μM pemetrexed and 0.1, 3, or 10 μg/ml YS110 was added thereto. At day 2, MTT assay was conducted. Significant difference was tested by two-tailed t-test (vs Cont).
(§9) MESO1 cells (2×10^3 cells/well) or H2452 cells (2×10^3 cells/well) were inoculated to a 96-well plate. One hour later, 0.3 μM cisplatin-0.1 μM pemetrexed combination, or YS110 (10 μg/ml) plus the 0.3 μM cisplatin-0.1 μM pemetrexed combination was added thereto (n=6). At day 2, MTT assay was conducted. Significant difference was tested by two-tailed t-test (vs Cont).
as §3
as §4, with “MESO1” for “JMN”, “10^−8, 3×10^−8,” for “3×10^−10, 10^−9,”, “10^−7” for “3×10^−8”
as §5, §6, §7

MESO1 cells [3] = experiment: Boyden chamber invasion assay, MESO1; details: 24 hours; for action on cell invasion (in words): cisplatin at 10 and 30 μM, pemetrexed even at 30 μM
Experimental: as §1, §2
as §2, with “MESO1” for “MESO1 cells or H2452”, “YS110” for “pemetrexed”, “20 μg/ml)” for “30 μM)”, “Cont). Next, the interaction of YS110 with cisplatin-pemetrexed concomitant use was studied. The interaction was analyzed by two-way ANOVA.” for “Cont).”

H2452 cells [4] = experiment: MTT cell growth assay, H2452; details: 10^−9 to 10^−4 M; day 2
Experimental: as §8
H2452 cells (2×10^3 cells/well) were inoculated to a 96-well plate. One hour later, the combination of 0.03, 0.3, or 1 μM cisplatin and 0.1, 3, or 10 μg/ml YS110, or the combination of 0.01, 0.1, or 0.3 μM pemetrexed and 0.1, 3, or 10 μg/ml YS110 was added thereto (n=6). At day 2, MTT assay was conducted. Significant difference was tested by two-tailed t-test (vs Cont).
as §9, §3
as §4, with “H2452” for “JMN”, “10^−8, 3×10^−8,” for “3×10^−10, 10^−9,”, “10^−7” for “3×10^−8”
as §5, §7

[5] = test system: MSTO-wt (CD26-negative malignant mesothelioma cell line MSTO-211H); experiment: WST-1 cytotoxicity assay, MSTO wt; details: 48 hours
Source text: (§10) A CD26-negative malignant mesothelioma cell line MSTO-211H (MSTO) (American Type Cell Culture Collection, Manassas, Va.) was transfected with CD26 gene, which was designated as MSTO clone 12 (Aoe K et al., Clin Cancer Res. (2012) 18: 1447-56). A CD26-negative T-cell leukemia cell line Jurkat (American Type Cell Culture Collection, Manassas, Va.) was transfected with CD26 gene, which was designated as Jurkat CD26(+) (Tanaka T et al., Proc Natl Acad Sci USA (1993) 90: 4586-90). A CD26-positive cell line JMN established from malignant mesothelioma was kindly provided by professor Chikao Morimoto, the Institute of Medical Science, the University of Tokyo. All the cell lines were cultured in RPMI medium (catalog No. 11875-093, Life Technologies Corp., Carlsbad, Calif.) containing 10% heat-inactivated fetal bovine serum (FBS, Life Technologies Corp., Carlsbad, Calif.), ABPC (100 μg/ml), and streptomycin (100 μg/ml) at 37° C. under 5% CO2 environment.
(§11) WST-1 assay was conducted according to the manual provided by the manufacturer. The background absorbance of each sample at 630 nm was subtracted from the measurement value thereof at 450 nm. The experiment was conducted in triplicate, and typical results are shown.

[6] = test system: Jurkat CD26(−) (T-cell leukemia cell line); experiment: WST-1 cytotoxicity assay, Jurkat CD26(−); details: 48 hours
Source text: as §10, §11

[7] = test system: Jurkat CD26(+) (T-cell leukemia cell line); experiment: WST-1 cytotoxicity assay, Jurkat CD26(+); details: 48 hours
Source text: as §10
(§12) WST-1 assay was conducted according to the manual provided by the manufacturer. The background absorbance of each sample at 630 nm was subtracted from the measurement value thereof at 450 nm.

[8] = test system: JMN (CD26-positive malignant mesothelioma cell line); experiment: WST-1 cytotoxicity assay, JMN; details: 48 hours
Source text: as §10, §12

[9] = test system: MSTO clone 12 (CD26-positive malignant mesothelioma cell line); experiment: WST-1 cytotoxicity assay, MSTO clone 12
Source text: as §10, §12

[10] = pemetrexed even at 30 μM with cisplatin 10 μM

For `Nc1nc2[nH]cc(CCc3ccc(C(=O)N[C@@H](CCC(=O)O)C(=O)O)cc3)c2c(=O)[nH]1` [pemetrexed], the “action on cell invasion (in words)” value (H2452 cells [1]) was “no inhibitory action on invasion”, the “effect of pemetrexed on the cell invasion inhibitory effect of cisplatin” value (H2452 cells [1]; [10]) was “did not potentiate” and the “growth inhibitory effect compared between MESO1 and JMN” value (JMN cells) was “did not differ”. The “cell growth, single drug dose-response (in words)” value (from here on “cell growth”) (MESO1 cells [2]) was “suppressed the growth”, the “action on cell invasion (in words)” value (MESO1 cells [3]) was “no inhibitory action on invasion” and the “effect of pemetrexed on the cell invasion inhibitory effect of cisplatin” value (MESO1 cells [3]; [10]) was “did not potentiate”. For the same molecule, the “cell growth” value (H2452 cells [4]) was “suppressed the growth”.

For `CC(C)[C@]12O[C@H]1[C@@H]1O[C@@]13C1(C)CCC4=C(COC4=O)[C@@H]1C[C@@H]1O[C@@]13[C@@H]2O` (stereo partly drawn) [Triptolide, (3bS,4aS,5aS,6R,6aR,7aS,7bS,8aS,8bS)-6-hydroxy-6a-isopropyl-8b-methyl-3b,4,4a,6,6a,7a,7b,8b,9,10-decahydrotrisoxireno[6,7:8a,9:4b,5]phenanthro[1,2-c]furan-1(3H)-one], the IC50 ([5]; Homo sapiens, MSTO-211H, MSTO wt, CD26 (−)) was 10 nM, the “cytotoxicity (in words)” value ([5]; MSTO-wt) was “dose-dependent toxic effect” and the IC50 ([6]; Homo sapiens, Jurkat (−)) was over 100 nM. The “cytotoxicity (in words)” value ([6]; Jurkat) was “dose-dependent toxic effect”, the IC50 ([7]; Homo sapiens, Jurkat CD26 (+)) was 6 nM and the “cytotoxicity (in words)” value ([7]; Jurkat CD26(+)) was “dose-dependent toxic effect”. For the same molecule, the “cytotoxicity (in words)” value [8] was “dose-dependent toxic effect”, the IC50 ([8]; CD26 (+)) was 15 nM and the IC50 ([9]; MSTO clone12, CD26 (+), 48 hours, read-out: IC50) was 10 nM. For the same molecule, the “cytotoxicity (in words)” value ([9]; MSTO clone 12, 48 hours) was “dose-dependent toxic effect”.

For `N.N.[Cl][Pt][Cl]` [cisplatin], the “action on cell invasion (in words)” value (H2452 cells [1]) was “suppressed cell invasion”, the “growth inhibitory effect compared between MESO1 and JMN” value (JMN cells) was “did not differ” and the “cell growth” value (MESO1 cells [2]) was “suppressed the growth”. The “action on cell invasion (in words)” value (MESO1 cells [3]) was “suppressed cell invasion” and the “cell growth” value (H2452 cells [4]) was “suppressed the growth”.

B1: Y-TR1 SPDP (conjugate)
heavy: EVQLVESGAGVKQPGGTLRLTCTASGFSLTTYGVHWVRQAPGKGLEWVGVIWGDGRTDYDAAFMSRVTISKDTSKSTVYLQMNSLRAEDTAVYYCMRNRHDWFDYWGQGTTVTVSSASTKGPSVFPLAPSSKSTSGGTAALGCLVKDYFPEPVTVSWNSGALTSGVHTFPAVLQSSGKLSSVVTVPSSSLGTQTYICNVNHKPSNTKVDKKVEPKSCDKTHTCPPCPAPELLGGPSVFLFPPKPKDTLMISRTPEVTCVVVDVSHEDPEVKFNWYVDGVEVHNAKTKPREEQYNSTYRVVSVLTVLHQDWLNGKEYKCKVSNKALPAPIEKTISKAKGQPREPQVYTLPPSRDELTKNQVSLTCLVKGFYPSDIAVEWESNGQPENNYKTTPPVLDSDGSFFKKLTVDKSRWQQGNVFSCSVMHEALHNHYTQKSLSLSPGK
light: DILLTQSPSSLSATPGERATITCRASQGIRNNLNWYQQKPGQAPRLLIYYSSNLQSGVPSRFSGSGSGTDFTLTISRLQPEDVAAYYCQQSIKLPFTFGSGTKVEIKRTVAAPSVFIFPPSDEQLKSGTASVVCLLNNFYPREAKVQWKVDNALQSGNSQESVTEQDSKDSTYSLSSTLTLSKADYEKHKVYACEVTHQGLSSPVTKSFNRGEC
B1 was tested, and the IC50 ([9]; MSTO clone12, CD26 (+), 48 hours) was 38 µg/mL and the IC50 ([9]; Table 5: comparison among 3 types of linkers, MSTO clone 12) was 35 µg/mL.
